Earlier results as cited in US9999656B2, “Treatment of short bowel syndrome patients with colon-in-continuity” (Shire-NPS Pharmaceuticals, Inc., priority 2004, dated 2018).

Tests used:
[1] = GLP-2; approximately; cited from earlier work
SBS jejunostomy patients = conditions: cited from earlier work

## glucagon-like peptide-2 [native GLP-2]
[1]
  half-life: approximately seven
SBS jejunostomy patients; native GLP-2 400 μg twice daily for 35 days, p=0.040
  effect on wet weight absorption: 420 ± 480 g/day
SBS jejunostomy patients; open-label study, pharmacologic doses, SBS jejunostomy patients (Jeppesen et al.)
  intestinal wet weight absorption (in words): significant improvement in intestinal wet weight absorption
